Results taken from patent US20180265911A1, “TRIPTYCENE DERIVATIVES FOR NUCLEIC ACID JUNCTION STABILIZATION” (THE TRUSTEES OF THE UNIVERSITY OF PENNSYLVANIA, priority 2015, published 2018).

Legend:
DNA 3WJ = assay: UV thermal melting of DNA 3WJ (Example 1); assay type: binding; details: Example 1 numbering, DNA 3WJ 1 μM, ligand 4 μM, 10 mM CacoK pH 7.2
Experimental: (§1) An aqueous solution of 10 mM potassium cacodylate (CacoK), pH 7.2 was used as analysis buffer. DNA 3WJ and dsDNA were brought to a final concentration of 1 1.1.1\4 and 2 μM, respectively. Samples were heated to 90° C. for 5 min, cooled to room temperature slowly, then to 4° C. Samples were incubated for 1 hour at room temperature with 3 μL of ligand at a final concentration of 4 μM for DNA 3WJ. The concentration of the ligand was 8 μM for dsDNA. Denaturation was recorded at 260 nm from 5° C. to 90° C. with a heating rate of 0.5° C. min^−1. Upper and lower baselines were used to plot the fraction folded.

dsDNA = assay: UV thermal melting of dsDNA (Example 1); assay type: binding; details: Example 1 numbering, dsDNA 2 μM, ligand 8 μM, 10 mM CacoK pH 7.2
Experimental: as §1

A2780cis cells = assay: Alamar blue cytotoxicity assay, A2780cis; assay type: cell-based, human
Experimental: (§2) All cell lines were maintained in a humidified incubator at 37° C. in 5% CO2. A2780 and A2780cis cells were cultured in RPMI 1640 (Corning Cellgro) supplemented with 10% fetal bovine serum (Giboc, Life Technologies), 1% L-glutamine (Corning Cellgro), penicillin and streptomycin (Corning Cellgro). Cells were seeded at a density of 2,000 cells/well in culture media (50 pt) in […] plates 24 hours prior to treatment. Cells were treated with DMSO (vehicle control), doxorubicin (positive control, 10 μM final), cisplatin (50 μM to 25 nM), or triptycenes (50 μM to 25 nM) for 72 hours at 37° C. with 5% CO2. DMSO concentrations were kept at 1%. Alamar blue (5 μL) was added and incubated for 4 hours. Fluorescence was measured at 590 nm. The vehicle control was taken as 100% cell viability and doxorubicin was taken as 0% viability.

A2780 cells = assay: Alamar blue cytotoxicity assay, A2780; assay type: cell-based, human; details: Example 1 numbering, 72 hours, viability shown at 50 μM
Experimental: as §2

[1] = test system: d(CAG)n(CTG) repeat nucleic acid junction; assay: Fluorescence quenching assay, TNR 3WJ (Example 5); assay type: binding; details: comparison in words
Experimental: Fluorescence Quenching Assay: All experiments were conducted in 50 mM sodium phosphate buffer, pH 7.2. Fluorescence measurements were recorded with excitation at 495 nm and emission at 520 nm using 5 nm bandwidths on a Tecan M1000 plate reader. […] Samples were incubated for 2h and measured in triplicate in a 384-well plate.

SMILES: CN(CCCN)CCCNC(=O)c1ccccc1 [Compound 4 (Example 1), N-(3-((3-aminopropyl)(methyl)amino)propyl)benzamide]
- ΔTm, stabilization of DNA 3WJ (DNA 3WJ): 2.0 °C
- ΔTm, dsDNA (dsDNA): −1.3 °C

SMILES: NCCCCCCCNC(=O)c1ccc2c(c1)C1c3ccc(C(=O)NCCCCCCCN)cc3C2c2cc(C(=O)NCCCCCCCN)ccc21 [Trip 2 (Example 1), N^2,N^6,N^14-tris(7-aminoheptyl)-9,10-dihydro-9,10-[1,2]benzenoanthracene-2,6,14-tricarboxamide]
- viability of A2780cis cells (A2780cis cells; 50 µM): 6%

SMILES: CN(C)CCCNC(=O)c1ccc2c(c1)C1c3ccc(C(=O)NCCCN(C)C)cc3C2c2cc(C(=O)NCCCN(C)C)ccc21 [Trip 3 (Example 1), N^2,N^6,N^14-tris(3-(dimethylamino)propyl)-9,10-dihydro-9,10-[1,2]benzenoanthracene-2,6,14-tricarboxamide]
- cytotoxicity in A2780 cells (A2780 cells): No cytotoxic activity
- cytotoxicity in A2780cis cells (A2780cis cells; Example 1 numbering, cisplatin-resistant line, Alamar blue, 72 hours, viability shown at 50 μM): No cytotoxic activity

SMILES: NCCCCC(N)C(=O)Nc1ccc2c(c1)C1c3ccc(NC(=O)C(N)CCCCN)cc3C2c2cc(NC(=O)C(N)CCCCN)ccc21 [Trip 3 (Example 3), (2S,2'S,2″S)—N,N′,N″-(9,10-dihydro-9,10-[1,2]benzenoanthracene-2,7,15-triyl)tris(2,6-diaminohexanamide)]
- relative binding affinity toward the TNR junction [1]: highest affinity

SMILES: NC(Cc1cnc[nH]1)C(=O)Nc1ccc2c(c1)C1c3ccc(NC(=O)C(N)Cc4cnc[nH]4)cc3C2c2cc(NC(=O)C(N)Cc3cnc[nH]3)ccc21 [Trip 4 (Example 3), (2S,2′S,2″S)—N,N′,N″-(9,10-dihydro-9,10-[1,2]benzenoanthracene-2,7,15-triyl)tris(2-amino-3-(1H-imidazol-5-yl)propanamide)]
- relative binding affinity toward the TNR junction [1]: highest affinity
